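Values below derive from 48-hour exposures of cells grown in 96-well plates, with endpoints linearly interpolated between the two concentrations bracketing the appropriate inhibition level. GI50: concentration for 50% inhibition of growth. TGI marks complete inhibition of growth.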
Assays:
Assay in all cases: DTP human tumour cell line panel, 48 h
[1] = system: KM12 colon
[2] = system: CCRF-CEM leukemia
[3] = system: NCI-H23 lung
[4] = system: SR leukemia
[5] = system: RPMI-8226 leukemia
[6] = system: HCT-116 colon
[7] = system: NCI-H522 lung
[8] = system: OVCAR-8 ovarian
[9] = system: SF-539 CNS
[10] = system: UACC-257 melanoma
[11] = system: PC-3 prostate
[12] = system: OVCAR-5 ovarian
[13] = system: MALME-3M melanoma
[14] = system: HCC-2998 colon
[15] = system: HOP-62 NSCLC
[16] = system: A549 NSCLC
[17] = system: SF-268 CNS
[18] = system: K-562 leukemia
[19] = system: 786-0 renal
[20] = system: U251 CNS
[21] = system: NCI-H226 lung
[22] = system: SK-MEL-2 melanoma
[23] = system: OVCAR-3 ovarian
[24] = system: HS 578T breast
[25] = system: SK-MEL-28 melanoma
[26] = system: MCF7 breast
[27] = system: SF-295 CNS
[28] = system: MOLT-4 leukemia
[29] = system: SN12C renal
[30] = system: HCT-15 colon
[31] = system: EKVX NSCLC
[32] = system: ACHN renal
[33] = system: SK-MEL-5 melanoma
[34] = system: SNB-75 CNS
[35] = system: NCI-H460 lung
[36] = system: SW-620 colon
[37] = system: HT29 colon
[38] = system: HL-60(TB) leukemia
[39] = system: A498 renal
[40] = system: HOP-92 NSCLC
[41] = system: SNB-19 CNS
[42] = system: M14 melanoma
[43] = system: IGROV1 ovarian
[44] = system: MDA-MB-435
[45] = system: NCI/ADR-RES ovarian
[46] = system: OVCAR-4 ovarian
[47] = system: T-47D breast
[48] = system: TK-10 renal
[49] = system: CAKI-1 renal
[50] = system: UO-31 renal
[51] = system: MDA-MB-231 breast
[52] = system: RXF 393 renal
[53] = system: LOX IMVI melanoma
[54] = system: DU-145 prostate

**Q.** `Cc1ncc([N+](=O)[O-])n1CC(O)Cn1cnc([N+](=O)[O-])n1` (stereo not drawn) was tested. Which TGI [1] did it give?
**A.** > 100 µM

**Q.** What about the TGI [2] of the same molecule?
**A.** > 100 µM

**Q.** What about the TGI [3] of the same molecule?
**A.** > 100 µM

**Q.** And the TGI [4]?
**A.** > 100 µM

**Q.** What about the TGI [5] of the same molecule?
**A.** > 100 µM

**Q.** What about the TGI [6] of the same molecule?
**A.** > 100 µM

**Q.** What about the TGI [7] of the same molecule?
**A.** > 100 µM

**Q.** What about the TGI [8] of the same molecule?
**A.** > 100 µM

**Q.** What about the TGI [9] of the same molecule?
**A.** > 100 µM

**Q.** What about the TGI [10] of the same molecule?
**A.** > 100 µM

**Q.** And the TGI [11]?
**A.** > 100 µM

**Q.** What about the TGI [12] of the same molecule?
**A.** > 100 µM

**Q.** And the TGI [13]?
**A.** > 100 µM

**Q.** And the TGI [14]?
**A.** > 100 µM

**Q.** And the TGI [15]?
**A.** > 100 µM

**Q.** And the TGI [16]?
**A.** > 100 µM

**Q.** And the TGI [17]?
**A.** > 100 µM

**Q.** And the TGI [18]?
**A.** > 100 µM

**Q.** What about the TGI [19] of the same molecule?
**A.** > 100 µM

**Q.** And the TGI [20]?
**A.** > 100 µM

**Q.** What about the TGI [21] of the same molecule?
**A.** > 100 µM

**Q.** And the TGI [22]?
**A.** > 100 µM

**Q.** And the TGI [23]?
**A.** > 100 µM

**Q.** And the TGI [24]?
**A.** > 100 µM

**Q.** What about the TGI [25] of the same molecule?
**A.** > 100 µM

**Q.** And the TGI [26]?
**A.** > 100 µM

**Q.** And the TGI [27]?
**A.** > 100 µM

**Q.** What about the TGI [28] of the same molecule?
**A.** > 100 µM

**Q.** And the TGI [29]?
**A.** > 100 µM

**Q.** And the TGI [30]?
**A.** > 100 µM

**Q.** And the TGI [31]?
**A.** > 100 µM

**Q.** And the TGI [32]?
**A.** > 100 µM

**Q.** And the TGI [33]?
**A.** > 100 µM

**Q.** And the TGI [34]?
**A.** > 100 µM

**Q.** And the TGI [35]?
**A.** > 100 µM

**Q.** And the TGI [36]?
**A.** > 100 µM

**Q.** And the TGI [37]?
**A.** > 100 µM

**Q.** What about the TGI [38] of the same molecule?
**A.** > 100 µM

**Q.** And the TGI [39]?
**A.** > 100 µM

**Q.** `CN1CCN(CCCOc2ccc3ncnc(Nc4ccc(Oc5cccc(C(F)(F)F)c5)c(Cl)c4)c3c2)CC1` was tested. Which GI50 [1] did it give?
**A.** 1.86 µM

**Q.** And the TGI [1]?
**A.** 4.01 µM

**Q.** What about the GI50 [2] of the same molecule?
**A.** 2.32 µM

**Q.** What about the TGI [2] of the same molecule?
**A.** 7.46 µM

**Q.** What about the GI50 [40] of the same molecule?
**A.** 1.33 µM

**Q.** What about the TGI [40] of the same molecule?
**A.** 3.9 µM

**Q.** And the GI50 [41]?
**A.** 1.83 µM

**Q.** What about the TGI [41] of the same molecule?
**A.** 3.8 µM

**Q.** And the GI50 [3]?
**A.** 1.81 µM

**Q.** What about the TGI [3] of the same molecule?
**A.** 4.04 µM

**Q.** What about the GI50 [42] of the same molecule?
**A.** 1.87 µM

**Q.** What about the TGI [42] of the same molecule?
**A.** 3.87 µM

**Q.** And the GI50 [43]?
**A.** 0.908 µM

**Q.** What about the TGI [43] of the same molecule?
**A.** 2.43 µM

**Q.** What about the GI50 [44] of the same molecule?
**A.** 1.53 µM

**Q.** And the TGI [44]?
**A.** 3.09 µM

**Q.** And the GI50 [8]?
**A.** 2.78 µM

**Q.** What about the TGI [8] of the same molecule?
**A.** 10.7 µM

**Q.** What about the GI50 [9] of the same molecule?
**A.** 1.6 µM

**Q.** What about the TGI [9] of the same molecule?
**A.** 3 µM

**Q.** What about the GI50 [10] of the same molecule?
**A.** 1.82 µM

**Q.** What about the TGI [10] of the same molecule?
**A.** 3.75 µM

**Q.** And the GI50 [11]?
**A.** 1.71 µM

**Q.** What about the TGI [11] of the same molecule?
**A.** 3.91 µM

**Q.** What about the GI50 [12] of the same molecule?
**A.** 1.7 µM

**Q.** What about the TGI [12] of the same molecule?
**A.** 3.46 µM

**Q.** And the GI50 [13]?
**A.** 1.5 µM

**Q.** And the TGI [13]?
**A.** 2.89 µM

**Q.** And the GI50 [45]?
**A.** 2.4 µM

**Q.** What about the TGI [45] of the same molecule?
**A.** 8.62 µM

**Q.** What about the GI50 [14] of the same molecule?
**A.** 1.55 µM

**Q.** And the TGI [14]?
**A.** 3.16 µM

**Q.** And the GI50 [46]?
**A.** 1.76 µM

**Q.** And the TGI [46]?
**A.** 5.04 µM

**Q.** What about the GI50 [47] of the same molecule?
**A.** 1.39 µM

**Q.** And the TGI [47]?
**A.** 4.02 µM

**Q.** What about the GI50 [48] of the same molecule?
**A.** 1.5 µM

**Q.** What about the TGI [48] of the same molecule?
**A.** 3.09 µM

**Q.** What about the GI50 [16] of the same molecule?
**A.** 1.27 µM

**Q.** And the TGI [16]?
**A.** 2.74 µM

**Q.** What about the GI50 [49] of the same molecule?
**A.** 1.31 µM

**Q.** What about the TGI [49] of the same molecule?
**A.** 3.07 µM

**Q.** And the GI50 [50]?
**A.** 1.21 µM

**Q.** What about the TGI [50] of the same molecule?
**A.** 2.44 µM

**Q.** What about the GI50 [17] of the same molecule?
**A.** 1.44 µM

**Q.** What about the TGI [17] of the same molecule?
**A.** 3.12 µM

**Q.** What about the GI50 [18] of the same molecule?
**A.** 1.17 µM

**Q.** And the TGI [18]?
**A.** 4 µM

**Q.** And the GI50 [51]?
**A.** 1.72 µM

**Q.** And the TGI [51]?
**A.** 3.15 µM

**Q.** What about the GI50 [20] of the same molecule?
**A.** 1.54 µM

**Q.** What about the TGI [20] of the same molecule?
**A.** 3.2 µM

**Q.** And the GI50 [21]?
**A.** 21 µM

**Q.** What about the TGI [21] of the same molecule?
**A.** 52 µM

**Q.** What about the GI50 [52] of the same molecule?
**A.** 1.49 µM

**Q.** What about the TGI [52] of the same molecule?
**A.** 2.93 µM

**Q.** What about the GI50 [22] of the same molecule?
**A.** 1.86 µM

**Q.** What about the TGI [22] of the same molecule?
**A.** 3.72 µM

**Q.** What about the GI50 [23] of the same molecule?
**A.** 1.09 µM

**Q.** What about the TGI [23] of the same molecule?
**A.** 2.56 µM

**Q.** And the GI50 [24]?
**A.** 1.67 µM

**Q.** What about the TGI [24] of the same molecule?
**A.** 4.22 µM

**Q.** What about the GI50 [25] of the same molecule?
**A.** 1.63 µM

**Q.** What about the TGI [25] of the same molecule?
**A.** 3.01 µM

**Q.** And the GI50 [26]?
**A.** 1.38 µM

**Q.** What about the TGI [26] of the same molecule?
**A.** 3.06 µM

**Q.** What about the GI50 [27] of the same molecule?
**A.** 1.66 µM

**Q.** What about the TGI [27] of the same molecule?
**A.** 3.13 µM

**Q.** And the GI50 [28]?
**A.** 1.83 µM

**Q.** And the TGI [28]?
**A.** 4.8 µM

**Q.** What about the GI50 [29] of the same molecule?
**A.** 1.26 µM

**Q.** What about the TGI [29] of the same molecule?
**A.** 2.57 µM

**Q.** And the GI50 [30]?
**A.** 1.33 µM

**Q.** What about the TGI [30] of the same molecule?
**A.** 2.88 µM

**Q.** And the GI50 [31]?
**A.** 1.16 µM

**Q.** And the TGI [31]?
**A.** 3.4 µM

**Q.** What about the GI50 [53] of the same molecule?
**A.** 1.3 µM

**Q.** What about the TGI [53] of the same molecule?
**A.** 2.81 µM

**Q.** What about the GI50 [32] of the same molecule?
**A.** 1.26 µM

**Q.** What about the TGI [32] of the same molecule?
**A.** 2.55 µM

**Q.** What about the GI50 [54] of the same molecule?
**A.** 1.66 µM

**Q.** And the TGI [54]?
**A.** 3.49 µM

**Q.** And the GI50 [34]?
**A.** 1.15 µM

**Q.** And the TGI [34]?
**A.** 3.13 µM

**Q.** What about the GI50 [35] of the same molecule?
**A.** 1.73 µM

**Q.** And the TGI [35]?
**A.** 3.37 µM

**Q.** And the GI50 [36]?
**A.** 1.76 µM

**Q.** And the TGI [36]?
**A.** 3.45 µM

**Q.** What about the GI50 [37] of the same molecule?
**A.** 1.13 µM

**Q.** And the TGI [37]?
**A.** 3.63 µM

**Q.** What about the GI50 [38] of the same molecule?
**A.** 1.89 µM

**Q.** And the TGI [38]?
**A.** 4.52 µM

**Q.** And the GI50 [39]?
**A.** 1.42 µM

**Q.** What about the TGI [39] of the same molecule?
**A.** 3.23 µM

From PubChem BioAssay (NCI)
